# Source: PubChem BioAssay AID1919003 (Molecular Pharmacology Branch, DTP, NCI, 2023)
# Test system: 786-0 complex spheroids with HUVEC/MSC, growth % test/control
# Test: Anticancer human tumor 786-0 cell line growth inhibition [AhR];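 further: compound exposure lasted seven days before the read-out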
# Conditions: for IC50: curve of first compound; for viability, T/C: stronger effect = lower value
# Summary of the method: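 Spheroids combined tumor cells with HUVEC endothelial cells and human MSCs as stroma. AhR antagonists were paired with standard or investigational drugs, each dosed in half-log steps down from near clinical Cmax, or from 10 microM where Cmax was unknown.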
smiles,measurement,setting,value
CC1COCCN1c1cc(C2(S(C)(=N)=O)CC2)nc(-c2ccnc3[nH]ccc23)n1 (stereo not given) + CC(CO)NC(=O)c1cc(-c2ccc(Cl)cc2)nn(-c2cnn(C)c2)c1=O,IC50,second compound 0.1 µM,3020 nM
same,IC50,second compound 0.316 µM,2780 nM
same,IC50,second compound 1 µM,2640 nM
same,IC50,second compound 3.16 µM,2570 nM
same,IC50,second compound 10 µM,2090 nM
same,"viability, T/C","second compound 0.1 µM, first compound 0.0316 µM",99.7%
same,"viability, T/C","second compound 0.1 µM, first compound 0.1 µM",99.5%
same,"viability, T/C","second compound 0.1 µM, first compound 0.316 µM",98.1%
same,"viability, T/C","second compound 0.1 µM, first compound 1 µM",99.4%
same,"viability, T/C","second compound 0.1 µM, first compound 3.16 µM",48%
same,"viability, T/C","second compound 0.1 µM, first compound 10 µM",15.7%
same,"viability, T/C","second compound 0.316 µM, first compound 0.0316 µM",101%
same,"viability, T/C","second compound 0.316 µM, first compound 0.1 µM",110%
same,"viability, T/C","second compound 0.316 µM, first compound 0.316 µM",96.2%
same,"viability, T/C","second compound 0.316 µM, first compound 1 µM",101%
same,"viability, T/C","second compound 0.316 µM, first compound 3.16 µM",43.6%
same,"viability, T/C","second compound 0.316 µM, first compound 10 µM",17.3%
same,"viability, T/C","second compound 1 µM, first compound 0.0316 µM",108%
same,"viability, T/C","second compound 1 µM, first compound 0.1 µM",102%
same,"viability, T/C","second compound 1 µM, first compound 0.316 µM",113%
same,"viability, T/C","second compound 1 µM, first compound 1 µM",97.4%
same,"viability, T/C","second compound 1 µM, first compound 3.16 µM",41.3%
same,"viability, T/C","second compound 1 µM, first compound 10 µM",13.7%
same,"viability, T/C","second compound 3.16 µM, first compound 0.0316 µM",108%
same,"viability, T/C","second compound 3.16 µM, first compound 0.1 µM",101%
same,"viability, T/C","second compound 3.16 µM, first compound 0.316 µM",118%
same,"viability, T/C","second compound 3.16 µM, first compound 1 µM",107%
same,"viability, T/C","second compound 3.16 µM, first compound 3.16 µM",37.5%
same,"viability, T/C","second compound 3.16 µM, first compound 10 µM",10.8%
same,"viability, T/C","second compound 10 µM, first compound 0.0316 µM",110%
same,"viability, T/C","second compound 10 µM, first compound 0.1 µM",118%
same,"viability, T/C","second compound 10 µM, first compound 0.316 µM",115%
same,"viability, T/C","second compound 10 µM, first compound 1 µM",93.6%
same,"viability, T/C","second compound 10 µM, first compound 3.16 µM",25.5%
same,"viability, T/C","second compound 10 µM, first compound 10 µM",8.6%
CCN(c1cc(-c2ccc(CN3CCOCC3)cc2)cc(C(=O)NCc2c(C)cc(C)[nH]c2=O)c1C)C1CCOCC1 + CC(CO)NC(=O)c1cc(-c2ccc(Cl)cc2)nn(-c2cnn(C)c2)c1=O,IC50,second compound 0.1 µM,> 3000 nM
same,IC50,second compound 0.316 µM,> 3000 nM
same,IC50,second compound 1 µM,> 3000 nM
same,IC50,second compound 3.16 µM,> 3000 nM
same,IC50,second compound 10 µM,> 3000 nM
same,"viability, T/C","second compound 0.1 µM, first compound 0.00949 µM",90.2%
same,"viability, T/C","second compound 0.1 µM, first compound 0.03 µM",101%
same,"viability, T/C","second compound 0.1 µM, first compound 0.0949 µM",93.5%
same,"viability, T/C","second compound 0.1 µM, first compound 0.3 µM",106%
same,"viability, T/C","second compound 0.1 µM, first compound 0.949 µM",98.7%
same,"viability, T/C","second compound 0.1 µM, first compound 3 µM",102%
same,"viability, T/C","second compound 0.316 µM, first compound 0.00949 µM",108%
same,"viability, T/C","second compound 0.316 µM, first compound 0.03 µM",107%
same,"viability, T/C","second compound 0.316 µM, first compound 0.0949 µM",103%
same,"viability, T/C","second compound 0.316 µM, first compound 0.3 µM",101%
same,"viability, T/C","second compound 0.316 µM, first compound 0.949 µM",103%
same,"viability, T/C","second compound 0.316 µM, first compound 3 µM",98.4%
same,"viability, T/C","second compound 1 µM, first compound 0.00949 µM",98.8%
same,"viability, T/C","second compound 1 µM, first compound 0.03 µM",102%
same,"viability, T/C","second compound 1 µM, first compound 0.0949 µM",101%
same,"viability, T/C","second compound 1 µM, first compound 0.3 µM",109%
same,"viability, T/C","second compound 1 µM, first compound 0.949 µM",110%
same,"viability, T/C","second compound 1 µM, first compound 3 µM",96.6%
same,"viability, T/C","second compound 3.16 µM, first compound 0.00949 µM",101%
same,"viability, T/C","second compound 3.16 µM, first compound 0.03 µM",97.5%
same,"viability, T/C","second compound 3.16 µM, first compound 0.0949 µM",106%
same,"viability, T/C","second compound 3.16 µM, first compound 0.3 µM",102%
same,"viability, T/C","second compound 3.16 µM, first compound 0.949 µM",112%
same,"viability, T/C","second compound 3.16 µM, first compound 3 µM",98.5%
same,"viability, T/C","second compound 10 µM, first compound 0.00949 µM",105%
same,"viability, T/C","second compound 10 µM, first compound 0.03 µM",110%
same,"viability, T/C","second compound 10 µM, first compound 0.0949 µM",102%
same,"viability, T/C","second compound 10 µM, first compound 0.3 µM",116%
same,"viability, T/C","second compound 10 µM, first compound 0.949 µM",116%
same,"viability, T/C","second compound 10 µM, first compound 3 µM",106%
